{
  "source": "patent US5563037A",
  "about": "“Homogeneous method for assay of double-stranded nucleic acids using fluorescent dyes and kit useful therein” (Johnson & Johnson Clinical Diagnostics, Inc., priority 1995, dated 1996)",
  "key": {"HIV-I DNA [1]": {"test_system": "HIV-I DNA", "assay": "Example 2: ethidium bromide stained electrophoretic gels of amplification products", "type": "biochemical", "settings": "dye added prior to amplification", "experimental": "The method of this invention was compared to an amplification and detection method outside the scope of this invention, which was carried out using YOYO-1 (1 μmolar final concentration), a tetravalent fluorescent dye, in the buffered solution described above. This dye has the following structure: [drawing 4] The PCR reaction mixture of Example 1 (except the DNA polymerase) was made to a volume of 5472 μl. The resulting mixture was aliquoted into tubes A, B and C (1824 μl each) representing Samples A, B and C, respectively. The sample in Tube A was diluted with buffer (220 μl) and subjected to amplification without any fluorescence dye present. The dye was added at the end of amplification for quantitative detection of the resulting products. In addition to the PCR reagents, the sample in Tube B contained YOYO-1 fluorescent dye (0.1 μmolar) which had been added prior to amplification (220 μl of a 10 μmolar solution). The sample in Tube C also contained YO-[…] fluorescent dye (0.1 μmolar) which had been added prior to amplification (220 μl of a 10 μmolar solution). The DNA polymerase (88 μl) and target HIV-I DNA target nucleic acid (220 μl) were then added to each tube, and the contents of the each of the three tubes were used to fill the PCR reagent compartment of eight pouches. Amplification was carried out using the same procedures as in Example 1. […] follows: The results of amplification were detected in three ways: (1) color dye scores visually evaluated as 0 (no signal) to 10 (highest signal density), (2) ethidium bromide stained electrophoretic gels, and (3) fluorescence measured on a commercially available Perkin Elmer fluorimeter. Electrophoresis was carried out using commercially available NuSieve 1.5%/Seakem Agarose 1% gels (modified to 2.5% agarose) and ethidium bromide stain. The samples were applied to the gels in conventional TBE buffer (4 μl/100 μl). Three replicate assays of each sample (A, B and C) were carried out using each detection means. The average result for each detection means was as follows: […]"}, "HIV-I DNA [2]": {"test_system": "HIV-I DNA", "assay": "Example 2: leuco dye color scores of amplified target in pouches", "type": "biochemical", "settings": "dye added prior to amplification", "experimental": "The method of this invention was compared to an amplification and detection method outside the scope of this invention, which was carried out using YOYO-1 (1 μmolar final concentration), a tetravalent fluorescent dye, in the buffered solution described above. This dye has the following structure: [drawing 4]\nAmplification was carried out using self-contained chemical pouches such as those described in U.S. Pat. No. 5,229,297 (Schnipelsky et al). Those pouches contained the capture probe SEQ ID NO:5 attached to particles which were immobilized in a detection channel where reactions can take place.\nThe pouches were loaded with reagents, as follows:\nThe PCR reaction mixture of Example 1 (except the DNA polymerase) was made to a volume of 5472 μl. The resulting mixture was aliquoted into tubes A, B and C (1824 μl each) representing Samples A, B and C, respectively.\nThe sample in Tube A was diluted with buffer (220 μl) and subjected to amplification without any fluorescence dye present. The dye was added at the end of amplification for quantitative detection of the resulting products.\nIn addition to the PCR reagents, the sample in Tube B contained YOYO-1 fluorescent dye (0.1 μmolar) which had been added prior to amplification (220 μl of a 10 μmolar solution).\nThe sample in Tube C also contained YO-PRO-1 fluorescent dye (0.1 μmolar) which had been added prior to amplification (220 μl of a 10 μmolar solution).\nThe DNA polymerase (88 μl) and target HIV-I DNA target nucleic acid (220 μl) were then added to each tube, and the contents of the each of the three tubes were used to fill the PCR reagent compartment of eight pouches.\nAmplification was carried out using the same procedures as in Example 1. The PCR protocol was similarly carried out for 40 cycles using a thermal cycler as follows:\n1) Preheat to denature at 95° C. for 60 seconds,\npriming and extension for 40 seconds at 63.5° C., and denaturation for 10 seconds at 95° C., and\n3) final denaturation for 60 seconds at 95° C.\nThe results of amplification were detected in three ways: (1) color dye scores visually evaluated as 0 (no signal) to 10 (highest signal density), (2) ethidium bromide stained electrophoretic gels, and (3) fluorescence measured on a commercially available Perkin Elmer fluorimeter.\nThe noted color scores were obtained by using immobilized capture probes in the pouches with which the amplified target hybridized during incubation for 5 minutes at 42° C. The immobilized target was contacted with the conjugate solution (identified above) for 1 minute at 30° C., followed by the wash solution for 1 minute at 55° C. The leuco dye solution was then added at 30° C. and the resulting color signal was observed after two minutes incubation at 30° C. […]"}},
  "data": [
    {"smiles": "C[n+]1c(C=C2C=CN(CCC[N+](C)(C)C)c3ccccc32)oc2ccccc21", "note": "[Compound E]", "values": [
      {"measurement": "effect of dye on amplification (gel)", "setting": "HIV-I DNA [1]", "result": "allowed amplification to proceed"},
      {"measurement": "Positive/negative Gel Bands", "setting": "HIV-I DNA [1]; 40 cycles", "result": "5 Positives out of 5 bands"},
      {"measurement": "effect of dye on amplification (color scores)", "setting": "HIV-I DNA [2]", "result": "not adversely affected"},
      {"measurement": "Average Color Score", "setting": "HIV-I DNA [2]; leuco dye, 0 (no signal) to 10 (highest signal density), 40 cycles", "result": 6}
    ]}
  ]
}
